This series in a line: Human HepG2 cell viability assay in 384 well format. Further details: dose 125 nL, time 70.5 hour; cytotoxicity at 70.5 h: concentration not given beside the values. It counts as toxicity, cell-based. Conditions: HepG2 cells, read-out: Inhibition.
In the case of `COc1ccc(C(=O)C2CCCN(Cc3ccon3)C2)c(OC)c1` (stereo not drawn), the cytotoxicity at 70.5 h was -10.4%.
With `Cc1nc(CCCNC(=O)[C@H]2CNC[C@@H](C(=O)N3CCCC3)C2)sc1C`, the cytotoxicity at 70.5 h was -5.47%.
For `Cc1cc2nc(C(C)C)cc(NCCc3cccn3C)n2n1` the value was -8.08%; for `Cc1cc(CN[C@@H](Cc2ccccc2)C(N)=O)c(C)s1`, -14.1%.
For the compound `COc1cccc2c1OCC(C(=O)N1CCN(C3CCCC3)C(=O)C1)C2` (stereo not drawn), the cytotoxicity at 70.5 h is -5.59%.
Consider `CN(C)Cc1ccc(C2CCCCN2C(=O)c2cccnn2)cc1` (stereo not drawn), for which the cytotoxicity at 70.5 h was 2.83%.
For `CSCc1nc(CNC(=O)c2cnn(C(C)C)c2)cs1`, the cytotoxicity at 70.5 h is -11.2%.
For `CSc1nccc(N2CCC(NCc3ccc4c(c3)OCO4)CC2)n1` the value was 4.69%; for `Cc1cc2[nH]c(CN3CCOC(c4ccc(Cl)cc4)C3)cc(=O)n2n1` (stereo not drawn), -2.79%; for `CC(C)(CN1CCCC1)CN1CCC(Cn2cc(CCO)nn2)CC1`, 18.9%.
Next, `CN(C)Cc1ccc(C(=O)N2CCCC(COc3ccc(F)cc3)C2)o1` (stereo not drawn): -5.29%; `CN(C)c1nc2c(c(N3CCC(O)CC3)n1)CN(CC(C)(C)C)CC2`: -13.5%.
Next, `CC1(C)CC(N2CCN(C3CCCC3)C(CCO)C2)CC(C)(C)C1` (stereo not drawn): -8.65%; `CCn1c(C2CCN(C(=O)c3ccc4sc(C)nc4c3)CC2)n[nH]c1=O`: -17.3%; `CCCn1ccnc1CN1C[C@@H](NC(C)=O)[C@H](c2ccc(OC)cc2)C1`: 15.8%.
On to `CCOc1ccc(OCc2nccc(-c3cc(C(=O)O)ccn3)n2)cc1`, for which the cytotoxicity at 70.5 h was 16%.
Consider `O=C(Nc1ccccc1OCCc1ccccn1)NC1CCOCC1`, for which the cytotoxicity at 70.5 h was determined as 18.2%.
Turning to `NC(=O)c1cc2c(nc1N1C[C@H]3OC(=O)N(C4CCCC4)[C@H]3C1)CCC2`, the cytotoxicity at 70.5 h is -10.7%.
Next, `Cc1nn(-c2ccccc2)c(C)c1-c1ccnc(N2CCCOCC2)n1`: -3.17%.
For `CS(=O)(=O)N[C@H]1CN(C(=O)CCc2ccc(=O)[nH]n2)C[C@@H]1C1CC1` the value was -7.22%; for `CN(CCSc1ccccc1)C(=O)c1cn2c(n1)CNCC2`, -12.8%.
For `Cc1ccc(-c2ccnc(NCC(O)c3ccc(O)cc3)n2)c(C)n1` (stereo not drawn) the value was -4.44%.
In the case of `Cc1nc(O)cc(CCNc2nc(N(C)C)nc(C)c2C)n1`, the cytotoxicity at 70.5 h is 22%.
Next, `CNC(=O)Cc1ccc(-n2ccnc2-c2ccc(C(=O)O)s2)cc1`: -5.64%.
Next, `CNC(=O)C(C)(C)NC(=O)c1cc(COc2ccccc2OC)[nH]n1`: -8.56%; `O=C1NC[C@@]2(C(=O)O)CN(Cc3cccc(CN4CCOCC4)c3)C[C@@H]12`: 1.62%; `CN(CC1CCCCO1)c1nncc(-c2cccc(F)c2)n1` (stereo not drawn): -3.62%.
Next, `CCCOCC(=O)N1CCc2nc(NC)nc(C(=O)N3CCCC3)c2C1`: -4.23%.
`CN[C@@H](CO)C(=O)NCc1cc2n(n1)CCCN(C1CCCCC1)C2`: the cytotoxicity at 70.5 h is -6.96%.
For `CC(C)(C)n1ccc(C(=O)N2CCCC(c3ncc[nH]3)C2)c1` (stereo not drawn) the value was -1.92%; for `Cc1ncsc1CN(Cc1ccccc1)Cc1ccncc1`, 8.23%.
Regarding `Cc1ccccc1CS(=O)(=O)NCCCN1CCCC1`, the cytotoxicity at 70.5 h was -2.2%.
Turning to `CCOc1ccccc1-n1c(C2CC(=O)N(C)C2)n[nH]c1=O` (stereo not drawn), the cytotoxicity at 70.5 h was -25.4%.
Next, `CCn1ncnc1C(C)Nc1cc(C2CC2)ncn1` (stereo not drawn): -13%; `COc1cc(C(N)=O)c(N(C)S(C)(=O)=O)cc1OC`: -9.06%; `O=C(c1ccc(O)c(Cl)c1)N1C[C@@H](CN2CCCCCC2)[C@@H](CO)C1`: 3.21%.
For `O=C1CCCCN1CCc1nc(-c2cccnn2)no1`, the cytotoxicity at 70.5 h was -2.5%.
With `Cc1c(C(=O)N2CCC(N3CCCCC3)CC2)n(C)c2ccc(Cl)cc12`, the cytotoxicity at 70.5 h was -0.949%.
For `Cc1ccc(C)c(OC(C)C(=O)Nc2cccnc2)c1` (stereo not drawn), the cytotoxicity at 70.5 h is -3.32%.
Next, `Cc1ncsc1CCNC(=O)Cn1nc(C)n(Cc2ccccc2)c1=O`: -2.97%.
`CSCc1noc(Cn2ccc3ccccc3c2=O)n1`: the cytotoxicity at 70.5 h was -10.8%.
For `CC(C)Cc1ncc2c(n1)CN(c1nc3ccccc3cc1CO)C2` the value was -14.3%; for `c1ccc(CN2CCC(NCCSc3cnn[nH]3)C2)cc1` (stereo not drawn), -3.66%.
Next, `COc1ccc(NC2CCCN(Cc3cnc(N(C)C)s3)C2)cc1` (stereo not drawn): -6.11%; `COc1cccc(-c2cc(C(=O)NCCn3nc(C)nc3C)[nH]n2)c1`: -7.22%.
Next, `O=C(Cc1nc(-c2ccncc2)n[nH]1)N1CCOCC1`: -14.8%; `CC(C)CN1CCc2[nH]cnc2C12CCN(C(=O)c1cnn(C)c1)CC2`: -7.51%; `COCCN(Cc1ccccc1C)c1nc(C)nc2oc(C)nc12`: 0.842%.
For `Cc1ccc(CN2CCN(c3nc4c(s3)c(C)nn4C)C(C)C2=O)cc1` (stereo not drawn), the cytotoxicity at 70.5 h worked out at 31.2%.
For `Cc1cc(-c2cncnc2)ccc1OCC(N)=O` the value was 13.6%; for `CCOc1ccc(C(=O)NC2CC2)cc1C`, -7.46%; for `COCCCNC(=O)Cc1nc(-c2ccncc2)n[nH]1`, -1.85%.
As for `COCCN1CCCC2(CCN(c3ncnc(C)c3C)C2)C1=O` (stereo not drawn), the cytotoxicity at 70.5 h is 15.5%.
Regarding `CCNC(=O)c1cc(OC)c(OC)cc1N(C)S(C)(=O)=O`, the cytotoxicity at 70.5 h was -8.66%.
Turning to `COc1ccc(F)c(-c2cc(NCCO)nc(N)n2)c1`, the cytotoxicity at 70.5 h was -3.97%.
On to `CC(=O)N[C@@H]1CN(C(=O)c2cc3ccccc3[nH]2)C[C@H]1c1ccc(C)o1`, for which the cytotoxicity at 70.5 h was -9.58%.
For `Cc1ccccc1N1CCCN(C(=O)CC2CN(C(C)C)CCO2)CC1` (stereo not drawn) the value was 0.214%; for `COc1cccc2c1OCC(C(=O)N1CCC(NS(C)(=O)=O)CC1)C2` (stereo not drawn), -7.91%; for `COc1ccccc1[C@@H]1CN(CC(=O)N2CCCCC2)C[C@H]1C(=O)O`, -7.8%.
`O=C(c1cnn2cc(CCO)cnc12)N1CCOC(C(F)(F)F)C1` (stereo not drawn): the cytotoxicity at 70.5 h is -13%.
As to `CCNc1ncc(C(=O)NCCc2csc(CSC)n2)cn1`, the cytotoxicity at 70.5 h is -4.44%.
As for `O=C(Nc1ccccc1)N1C[C@H]2CC[C@@H]1CN(Cc1ccccc1)C2`, the cytotoxicity at 70.5 h is -4.8%.
`Cc1cc(N2CCN(C(=O)C(C)n3ccnc3C(C)C)CC2)cc(C)n1` (stereo not drawn): the cytotoxicity at 70.5 h was -4.34%.
For the compound `CCc1ncc(C(=O)N2CCCC(c3nccn3CCOC)C2)cn1` (stereo not drawn), the cytotoxicity at 70.5 h is -0.318%.
For `COC(=O)N1CCCCC1C(=O)N1CCN(c2cccnc2)CC1` (stereo not drawn) the value was 6.34%; for `OCc1csc(N2CCN(Cc3cccc(F)c3)CC2)n1`, 22.2%.
With `CCNc1ncc(CN2C[C@@H](C(=O)O)[C@H](C3CC3)C2)cn1`, the cytotoxicity at 70.5 h was -7.25%.
For `CCn1c(CN2CCCC2)nnc1C1CCN(S(=O)(=O)CC)CC1` the value was -2.53%.
Next, `CC1Oc2ccc(S(=O)(=O)NCCCn3ccnc3)cc2NC1=O` (stereo not drawn): -3.81%.
For the compound `CNS(=O)(=O)c1ccsc1C(=O)OC`, the cytotoxicity at 70.5 h is -5.92%.
Regarding `CNC(=O)C1CC(=O)N(c2cccc(F)c2)C1` (stereo not drawn), the cytotoxicity at 70.5 h is -3.04%.
As for `CS(=O)(=O)N1CCC(c2nnc(Cn3ccnc3)n2C2CC2)CC1`, the cytotoxicity at 70.5 h was -3.52%.
Next, `CCCN(CCOC)c1nc(C)nc2sccc12`: 13.4%.
For `COc1ccc(OC)c(C2CCN(C(=O)[C@H]3CC[C@@H](O)CC3)C2)c1` (stereo partly drawn) the value was -9.68%.
For `CCOc1cccc(C(C(=O)O)N(C)Cc2cc(C)no2)c1` (stereo not drawn), the cytotoxicity at 70.5 h was -9.85%.
For `O=C(Cc1n[nH]c(-c2cncc(Br)c2)n1)NCc1cccnc1` the value was -9.48%.
Next, `CN(C)C[C@@H]1CN(C(=O)c2cc(F)ccc2F)C[C@@H]1CO`: -5.47%.
With `CN1CCC2(CC1)CN(C(=O)c1onc3ccccc13)CCCN2C`, the cytotoxicity at 70.5 h worked out at 26.8%.
For `CCNC(=O)[C@@H]1C[C@H](N)CN1C(=O)CCc1ccccc1Cl` the value was -4.67%.
For `CN(C)CC1(O)CCN(C(=O)Cc2ccc(Cl)c(Cl)c2)C1` (stereo not drawn) the value was 10.5%; for `CCN(Cc1ccoc1)Cc1nc(COC)no1`, -7.42%; for `Cc1ccccc1CSc1nc(N)cc(N2CCCC(O)C2)n1` (stereo not drawn), 0.482%.
On to `O=S(=O)(Nc1ccc2c(c1)OCCO2)N1CCCCC1`, for which the cytotoxicity at 70.5 h is -0.954%.
Next, `C[C@@H]1CN(C(=O)C2(N3CCCCC3)Cc3ccccc3C2)C[C@H](C)O1`: -9%; `O=C1[C@@H]2CN(Cc3cc4ccccc4o3)C[C@]2(C(=O)O)CN1CC1CC1`: -4.85%; `Cc1nnc2sc(-c3cc(C(C)C)n[nH]3)nn12`: -4.97%.
Next, `O=C(O)c1ccc(CC2CCN(S(=O)(=O)N3CCOCC3)C2)cc1` (stereo not drawn): -5.44%.
For `Cc1ccc(NC(=O)c2coc(C)n2)c(C)c1`, the cytotoxicity at 70.5 h was -6.55%.
Next, `c1ccc2sc(N3CCC4(CCCN4Cc4ncc[nH]4)CC3)nc2c1`: -7.49%; `CCNc1cc(N2CCN(C(=O)c3ccc(OC)cc3)CC2)nc(C)n1`: -2.56%.
`CNc1ccnc(NCCC(=O)Nc2ccccc2C)n1`: the cytotoxicity at 70.5 h was -4.65%.
`Cc1ncc(CN2CCC(CNS(=O)(=O)C3CC3)C2)cn1` (stereo not drawn): the cytotoxicity at 70.5 h was 13.4%.
For `O=C1COc2ccc(C(=O)NS(=O)(=O)c3ccccc3Cl)cc2N1` the value was -14.9%; for `O=C1COc2ccc(C(=O)NS(=O)(=O)c3ccccc3F)cc2N1`, -8.64%; for `CCN(CC1CCOC1)C(=O)c1ccccc1S(=O)(=O)CC` (stereo not drawn), 10.2%.
As for `Cc1nn(C)c(C)c1CCC(=O)N1CCCC(n2cccn2)C1` (stereo not drawn), the cytotoxicity at 70.5 h turned out to be 21.7%.
As to `Cn1ccnc1CN1CCCN(C(=O)c2ccc3[nH]cnc3c2)CC1`, the cytotoxicity at 70.5 h is -8.02%.
For `NC(=O)C1CCN(C(=O)NCc2ccc(-c3ccn[nH]3)cc2)CC1` the value was -6.11%.

The values are drawn from ChEMBL document CHEMBL3507680, “University of Dundee, Gates Library screen for HepG2 cell viability”.
